Among the data in the NIST ThermoML archive (doi:10.1021/je1001544) are refractive index and mass density values, retold here.

± gives the expanded uncertainty stated by the source.

A short description of series [1]: refractive index (Na D-line) (dimensionless). The settings on record: 298.15 K; 101.33 kPa; Liquid; Standard Abbe refractometry.
For series [2] the following is noted: 298.15 K; 101.33 kPa; Liquid; Vibrating tube method.

Take `CCOS(=O)(=O)[O-].CCn1cc[n+](C)c1` [1-ethyl-3-methylimidazolium ethyl sulfate]: the refractive index in series [1] turned out to be 1.4791 ± 0.00037. Moreover, the mass density in series [2] is listed as 1237.23 ± 0.43 kg/m3.

On to `c1ccccc1` [benzene], for which the refractive index in series [1] turned out to be 1.49774 ± 0.00031. For the same compound, in series [2], the mass density is reported as 873.57 ± 0.1 kg/m3.

Take `CCCCCCC` [heptane]: the refractive index in series [1] is 1.38515 ± 0.00033. For the same compound, in series [2], the mass density is on record as 679.56 ± 0.18 kg/m3.

As for `CCCCCC` [hexane], the refractive index in series [1] was 1.37234 ± 0.00037. Moreover, the mass density in series [2] is on record as 655.19 ± 0.25 kg/m3.

Turning to `CCCCCCCCC` [nonane], the refractive index in series [1] turned out to be 1.40326 ± 0.00037. For the same compound, in series [2], the mass density worked out at 713.99 ± 0.25 kg/m3.

For the compound `CCCCCCCC` [octane], in series [1], the refractive index is listed as 1.39519 ± 0.00033. Further, the mass density in series [2] is given as 698.6 ± 0.18 kg/m3.
